# Results taken from US9624238B2, “4H-thieno[3,2-C]chromene-based inhibitors of Notum Pectinacetylesterase and methods of their use” (Lexicon Pharmaceuticals, Inc., priority 2011, dated 2017).
# Tests used:
# [1] = biological target: T1, human notum pectinacetyltransferase (Homo sapiens, UniProt Q6P988); experiment: Reporter assay (CellSensor LEF/TCF-bla FreeStyle 293F cells, Wnt3a and notum conditioned media); format: cell-based
# T1 construct: made in house; unpurified conditioned medium used
# T1 sequence (Q6P988 20-496): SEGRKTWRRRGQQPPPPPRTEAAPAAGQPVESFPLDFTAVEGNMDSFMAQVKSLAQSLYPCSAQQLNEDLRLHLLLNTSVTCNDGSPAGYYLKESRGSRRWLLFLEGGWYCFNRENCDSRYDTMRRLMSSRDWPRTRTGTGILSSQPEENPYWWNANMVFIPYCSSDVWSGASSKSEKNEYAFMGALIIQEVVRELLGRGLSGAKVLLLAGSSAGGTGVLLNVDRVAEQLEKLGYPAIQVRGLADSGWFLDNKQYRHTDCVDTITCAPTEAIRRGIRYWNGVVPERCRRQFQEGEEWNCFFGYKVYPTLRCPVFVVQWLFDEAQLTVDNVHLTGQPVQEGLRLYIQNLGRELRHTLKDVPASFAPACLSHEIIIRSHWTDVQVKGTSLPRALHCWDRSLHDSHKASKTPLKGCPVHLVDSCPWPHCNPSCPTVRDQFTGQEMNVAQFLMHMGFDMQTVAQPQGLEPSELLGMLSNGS
# [2] = biological target: T1, human notum pectinacetyltransferase; experiment: Binding assay (OPTS esterase substrate, fluorimetric); format: biochemical
# Description: Plasmid containing human notum pectinacetyltransferase in pcDNA3.1(+) vector was transfected into HEK (293 cells and clones were selecting by growing in presence of 400 ug/mL of G418. Condition media from these cells was used for the assay.
# [3] = given as numeric bound above the legend's highest class
# [4] = given as a numeric bound above the legend's range
EC50 ([1]; class symbols) [nM],IC50 ([2]; class symbols) [nM],Structure (SMILES),other results
< 50,< 1000,CC1Cc2cc(C(=O)O)sc2-c2ccc(Cl)cc21 (centres unmarked),
< 50,< 50,NC(=O)c1cc2c(s1)-c1ccsc1CC2,
< 50,< 100,Cc1cc2c(cc1F)-c1sc(C(=O)O)cc1CS2,
< 50,< 50,N#CCNC(=O)c1cc2c(s1)-c1ccccc1CC2,
,,CCOC(=O)c1cc2c(s1)-c1cc(OC)ccc1CC2,"EC50 [1, 3]: > 1000 nM; IC50 [2, 3]: > 2000 nM"
< 50,< 1000,COc1ccc2c(c1C#N)CCc1cc(C(N)=O)sc1-2,
< 50,< 100,Cc1ccc2c(c1Cl)CCc1cc(C(=O)O)sc1-2,
< 50,< 50,NC(=O)c1cc2c(s1)-c1c(cccc1C(F)(F)F)OC2,
< 50,< 1000,O=C(O)c1cc2c(s1)-c1cc([N+](=O)[O-])ccc1OC2,
< 50,< 50,CC1Cc2cc(C(N)=O)sc2-c2cc(F)ccc21 (centres unmarked),
< 100,< 100,O=C(NCCO)c1cc2c(s1)-c1ccccc1CCC2,
< 50,< 100,O=C(O)c1cc2c(s1)-c1c(Cl)ccc(Cl)c1OC2,
< 50,< 100,Cc1ccc(C)c2c1OCc1cc(C(N)=O)sc1-2,
< 50,< 50,NC(=O)c1cc2c(s1)-c1c(cc(F)c(F)c1F)OC2,
< 50,< 100,NC(=O)c1cc2c(s1)-c1ccc(Cl)c(Cl)c1OC2,
< 50,< 50,O=C1CCN(C(=O)c2cc3c(s2)-c2cc(F)cc(F)c2SC3)C1,
< 1000,< 1000,O=C(NCCN1CCCCC1)c1cc2c(s1)-c1ccccc1CC2,
< 50,< 50,COc1ccc2c(c1Cl)CCc1cc(C(=O)N3CCC(OC)C3)sc1-2 (centres unmarked),
< 50,< 50,COc1ccc2c(c1Cl)CCc1cc(C(N)=O)sc1-2,
< 100,< 1000,COc1ccc2c(c1)OCc1cc(C(N)=O)sc1-2,

EC50 ([1]; class symbols) [nM],IC50 ([2]; class symbols) [nM],Structure (SMILES),other results
< 500,,CCOC(=O)c1cc2c(s1)-c1cccc(OC)c1CC2,"IC50 [2, 3]: > 2000 nM"
,,COc1cc2c(cc1C#N)-c1sc(C(=O)O)cc1CC2,"EC50 [1, 4]: > 1000 nM; IC50 [2, 4]: > 2000 nM"
< 50,< 100,COc1ccc2c(c1F)CCc1cc(C(=O)O)sc1-2,
< 50,< 50,NC(=O)c1cc2c(s1)-c1ccc(F)c(F)c1OC2,
< 50,< 1000,CC1(C)Cc2cc(C(N)=O)sc2-c2ccc(Cl)cc21,
< 50,< 50,NC(=O)c1cc2c(s1)-c1ccc(Cl)c(F)c1OC2,
< 50,< 100,O=C(O)c1cc2c(s1)-c1ccc(Cl)cc1OC2,
< 50,< 2000,Cc1cc(C)c2c(c1)OCc1cc(C(N)=O)sc1-2,
< 50,< 50,"NC(=O)c1cc2c(s1)-c1ccccc1OC2 [4H-thieno[3,2-c]chromene-2-carboxamide]",
< 50,< 50,NC(=O)c1cc2c(s1)-c1cc(F)c(F)cc1CC2,
< 50,< 1000,O=C(c1cc2c(s1)-c1cc(F)c(Cl)cc1SC2)N1CC[C@H](F)C1,
< 50,< 1000,COc1ccc2c(c1Cl)CCc1cc(C(=O)NCCO)sc1-2,
< 50,< 1000,Cc1ccc2c(c1)-c1sc(C(=O)O)cc1CO2,
< 50,< 2000,NC(=O)c1cc2c(s1)-c1ccc(Cl)c(Cl)c1OCC2,
< 50,< 50,NC(=O)c1cc2c(s1)-c1c(Cl)ccc(Cl)c1OC2,
< 50,< 100,Cc1ccc2c(c1F)CCc1cc(C(=O)O)sc1-2,
< 50,< 1000,O=C(O)c1cc2c(s1)-c1ccc(Br)cc1CC2,
< 50,< 50,O=C(c1cc2c(s1)-c1cc(F)cc(F)c1SC2)N1CCC(O)C1 (centres unmarked),
< 50,< 100,O=C(O)c1cc2c(s1)-c1cc(Br)ccc1OC2,
< 50,< 100,NC(=O)c1cc2c(s1)-c1cc(F)c(Cl)cc1SC2,

EC50 ([1]; class symbols) [nM],IC50 ([2]; class symbols) [nM],Structure (SMILES),other results
< 500,< 2000,"NCCNC(=O)c1cc2c(s1)-c1ccccc1CC2 [N-(2-aminoethyl)-4,5-dihydronaphtho[1,2-b]thiophene-2-carboxamide]",
< 50,,COc1cccc2c1CCc1cc(C(=O)O)sc1-2,"IC50 [2, 3]: > 2000 nM"
< 50,< 1000,O=C(c1cc2c(s1)-c1cc(F)cc(F)c1SC2)N1CC[C@H](F)C1,
< 50,< 50,O=C(NO)c1cc2c(s1)-c1ccccc1CC2,
< 50,< 1000,O=C(O)c1cc2c(s1)-c1c(cccc1C(F)(F)F)OC2,
< 50,< 100,O=C(O)c1cc2c(s1)-c1ccc(Cl)c(F)c1OC2,
< 50,< 2000,Cc1ccc2c(c1)-c1sc(C(N)=O)cc1CS2,
< 50,< 1000,O=C(O)c1cc2c(s1)-c1ccc(F)cc1CC2,
< 50,< 2000,CNc1ccc2c(c1)CCc1cc(C(=O)O)sc1-2,
< 50,< 100,COc1ccc2c(c1F)CCc1cc(C(N)=O)sc1-2,
< 500,< 50,O=C(O)c1cc2c(s1)-c1sc(Cl)cc1CC2,
< 1000,< 50,O=C(O)c1cc2ccc3scc(Cl)c3c2s1,
< 50,< 1000,NC(=O)c1cc2c(s1)-c1cc(Br)cc(Cl)c1OC2,
< 50,< 1000,NC(=O)c1cc2c(s1)-c1cc(Cl)ccc1SC2,
< 50,< 1000,NC(=O)c1cc2c(s1)-c1cc(Cl)c(Cl)cc1CC2,
< 50,< 1000,Cc1ccc(Cl)c2c1-c1sc(C(=O)O)cc1CO2,
< 500,,Cc1ccc(C)c2c1-c1sc(C(=O)O)cc1CS2(=O)=O,"IC50 [2, 4]: > 2000 nM"
< 50,< 100,N#Cc1cccc2c1OCc1cc(C(=O)O)sc1-2,
